Source: US8394592B2, “Methods for assessing cancer susceptibility to carcinogens in tobacco products” (The Board of Regents of the University of Texas System, priority 2006, dated 2013)
Values joined by “and” are separate entries in the source; they are usually repeats but may differ in a detail not shown here. Identical values can stand only once.

Tested on: peripheral blood lymphocytes
Experiment: Cytokinesis-block micronucleus (CBMN) assay, NNK-treated lymphocyte cultures of lung cancer cases and controls
Format: cell-based, human
Set-up: Control Subjects, % with ≧5 NNK-induced MN / Control Subjects, % with 0 or 2 NNK-induced NPBs / Control Subjects, % with 3 or 5 NNK-induced NPBs / Control Subjects, % with 1 NNK-induced NBUDs: concentration or dose not given beside the values; Control Subjects, % with 3 or 4 NNK-induced MN: tested at 0.24 mM
Details: for NNK-induced NPBs, Mean ± SE / NNK-induced NPBs, Median / NNK-induced MN, Mean ± SE / NNK-induced MN, Median / NNK-induced NBUDs, Mean ± SE / NNK-induced NBUDs, Median: Control, 0.24 mM NNK
Method: The CBMN test was performed using the cytochalasin B technique described by Fenech and Morley (22) and following recommendations from The International Collaborative Project on Micronucleus Frequency in Human Populations (HUMN Project) to measure MN, NPBs and NBUDs in untreated cells and NNK-treated cells (27). Duplicate lymphocyte cultures were prepared for each study subject. Each culture contained 2.0×10^6 cells in 5 mL RPMI 1640 medium supplemented with 100 U/mL penicillin, 100 μg/mL streptomycin, 10% fetal bovine serum, and 2 mM L-glutamine (Gibco-Invitrogen, Carlsbad, Calif.) and 1% phytohemagglutinin (Remel, Lenexa, Kans.). For the cultures treated with NNK, 24 hours after initiation, the PBLs were centrifuged and the supernatant growth medium was removed and reserved. The PBLs were resuspended in 5 mL of serum-free RPMI 1640 medium supplemented with 0.24 mM NNK (a dose previously used by us and others (23-26) (CAS No. 64091-91-4, National Cancer Institute, Midwest Carcinogen Repository, Kansas City, Mo.; purity>98%) and incubated at 37° C. in the presence of 5% CO2 for 2 hours.
Next, the PBLs were washed twice with serum-free RPMI 1640, transferred to clean tubes and re-incubated for […] in the reserved supernatant. At 44 hours after initiation, cells were blocked in cytokinesis by adding cytochalasin B (Sigma, St. Louis, Mo.; final concentration 4 µg/mL). Similarly, cultures for the determination of spontaneous damage (untreated cells) were handled in the same manner, with the exception of treatment with NNK. The total incubation time for all cultures was 72 hours. After incubation, the cells were fixed in 3:1 methanol:glacial acetic acid, dropped onto clean microscopic slides, air-dried and stained with Giemsa stain. For each sample, 1000 binucleated cells were scored blindly using a Nikon E-400 light optical microscope following the scoring criteria outlined by HUMN Project (2,22,27); the numbers of MN, NPBs, and NBUDs per 1000 binucleated cells were recorded. For quality control, 20% of the slides were randomly selected and blindly rescored and the results compared with the original scoring.

[1] = MN/1000 binucleated cells, 130 controls
[2] = MN/1000 binucleated cells, 139 cases
[3] = lymphocytes from patients with lung cancer vs controls
[4] = per 1000 binucleated cells, 130 controls
[5] = per 1000 binucleated cells, 139 cases

For `CN(CCCC(=O)c1cccnc1)N=O` [NNK, 4-(methylnitrosamino)-1-(3-pyridyl)-1-butanone], which “NNK-induced NPBs, Mean ± SE” value (Females) is on record?
The value was 2.68 ± 0.19 per 1000 binucleated cells.

And the “NNK-induced NPBs, Median” value (Females)?
The value was 2.0 per 1000 binucleated cells.

And the “NNK-induced MN, Mean ± SE” value (History of Alcohol Use No)?
Its value is 2.54 ± 0.15 per 1000 binucleated cells.

And the “NNK-induced MN, Median” value (History of Alcohol Use No)?
Its value is 3.00 per 1000 binucleated cells.

And the “NNK-induced NBUDs, Mean ± SE” value (History of Alcohol Use No)?
Its value is 0.14 ± 0.04 per 1000 binucleated cells.

What about the “NNK-induced NBUDs, Median” value (History of Alcohol Use No) of the same compound?
Its value is 0.00 per 1000 binucleated cells.

And the “NNK-induced NPBs, Mean ± SE” value (History of Alcohol Use No)?
Its value is 2.40 ± 0.13 per 1000 binucleated cells.

What about the “NNK-induced NPBs, Median” value (History of Alcohol Use No) of the same compound?
The value was 2.00 per 1000 binucleated cells.

And the “NNK-induced MN, Mean ± SE” value (History of Alcohol Use Yes)?
Its value is 2.61 ± 0.15 per 1000 binucleated cells.

And the “NNK-induced MN, Median” value (History of Alcohol Use Yes)?
The value was 2.00 per 1000 binucleated cells.

What about the “NNK-induced NBUDs, Mean ± SE” value (History of Alcohol Use Yes) of the same compound?
Its value is 0.11 ± 0.04 per 1000 binucleated cells.

What about the “NNK-induced NBUDs, Median” value (History of Alcohol Use Yes) of the same compound?
The value was 0.00 per 1000 binucleated cells.

And the “NNK-induced NPBs, Mean ± SE” value (History of Alcohol Use Yes)?
Its value is 2.32 ± 0.12 per 1000 binucleated cells.

And the “NNK-induced NPBs, Median” value (History of Alcohol Use Yes)?
The value was 2.00 per 1000 binucleated cells.

And the “NNK-induced MN, Mean ± SE” value (Males)?
Its value is 2.63 ± 0.11 per 1000 binucleated cells.

And the “NNK-induced MN, Median” value (Males)?
The value was 3.0 per 1000 binucleated cells.

What about the “NNK-induced NBUDs, Mean ± SE” value (Males) of the same compound?
Its value is 0.12 ± 0.03 per 1000 binucleated cells.

And the “NNK-induced NBUDs, Median” value (Males)?
The value was 0.0 per 1000 binucleated cells.

And the “NNK-induced NPBs, Mean ± SE” value (Males)?
Its value is 2.27 ± 0.10 per 1000 binucleated cells.

What about the “NNK-induced NPBs, Median” value (Males) of the same compound?
The value was 2.0 per 1000 binucleated cells.

What about the “NNK-induced MN, Mean ± SE” value (Overall) of the same compound?
The value was 2.62±0.10 per 1000 binucleated cells and 2.62 ± 0.1 per 1000 binucleated cells.

What about the “NNK-induced MN, Median” value (Overall) of the same compound?
Its value is 3.0 per 1000 binucleated cells and 3 per 1000 binucleated cells.

And the “NNK-induced NBUDs, Mean ± SE” value (Overall)?
Its value is 0.12±0.03 per 1000 binucleated cells.

And the “NNK-induced NBUDs, Median” value (Overall)?
The value was 0.0 per 1000 binucleated cells and 0 per 1000 binucleated cells.

And the “NNK-induced NPBs, Mean ± SE” value (Overall)?
The value was 2.38±0.09 per 1000 binucleated cells.

And the “NNK-induced NPBs, Median” value (Overall)?
Its value is 2.0 per 1000 binucleated cells and 2 per 1000 binucleated cells.

And the “NNK-induced MN, Mean ± SE” value (Years smoked > 32)?
The value was 2.69 ± 0.12 per 1000 binucleated cells.

What about the “NNK-induced MN, Median” value (Years smoked > 32) of the same compound?
Its value is 3.0 per 1000 binucleated cells.

And the “NNK-induced NBUDs, Mean ± SE” value (Years smoked > 32)?
The value was 0.13 ± 0.04 per 1000 binucleated cells.

And the “NNK-induced NBUDs, Median” value (Years smoked > 32)?
The value was 0.0 per 1000 binucleated cells.

What about the “NNK-induced NPBs, Mean ± SE” value (Years smoked > 32) of the same compound?
The value was 2.39 ± 0.09 per 1000 binucleated cells.

And the “NNK-induced NPBs, Median” value (Years smoked > 32)?
Its value is 2.0 per 1000 binucleated cells.

And the “NNK-induced MN, Mean ± SE” value (Years smoked ≦ 32)?
Its value is 2.33 ± 1.02 per 1000 binucleated cells.

And the “NNK-induced MN, Median” value (Years smoked ≦ 32)?
The value was 2.0 per 1000 binucleated cells.

And the “NNK-induced NBUDs, Mean ± SE” value (Years smoked ≦ 32)?
The value was 0.06 ± 0.04 per 1000 binucleated cells.

And the “NNK-induced NBUDs, Median” value (Years smoked ≦ 32)?
The value was 0.0 per 1000 binucleated cells.

And the “NNK-induced NPBs, Mean ± SE” value (Years smoked ≦ 32)?
Its value is 2.36 ± 0.19 per 1000 binucleated cells.

And the “NNK-induced NPBs, Median” value (Years smoked ≦ 32)?
The value was 2.0 per 1000 binucleated cells.

And the “Control Subjects, % with 1 or 2 NNK-induced MN” value [1]?
Its value is 49% and 49.2%.

What about the “Control Subjects, % with 3 or 4 NNK-induced MN” value [1] of the same compound?
The value was 44.6%.

And the “Control Subjects, % with ≧5 NNK-induced MN” value [1]?
The value was 6% and 6.2%.

What about the “Control Subjects, No. with 1 or 2 NNK-induced MN” value [1] of the same compound?
Its value is 64.

What about the “Control Subjects, No. with 3 or 4 NNK-induced MN” value [1] of the same compound?
Its value is 58.

And the “Control Subjects, No. with ≧5 NNK-induced MN” value [1]?
The value was 8.

And the “Case Patients, % with 1 or 2 NNK-induced MN” value [2]?
Its value is 4% and 3.6%.

What about the “Case Patients, % with 3 or 4 NNK-induced MN” value [2] of the same compound?
Its value is 56.1%.

And the “Case Patients, No. with 1 or 2 NNK-induced MN” value [2]?
The value was 5.

And the “Case Patients, No. with 3 or 4 NNK-induced MN” value [2]?
The value was 78.

What about the “Case Patients, No. with ≧5 NNK-induced MN” value [2] of the same compound?
The value was 56.

What about the “Increase in NNK-induced MN frequency, lung cancer patients over controls” value [3] of the same compound?
Its value is 1.6 fold.

What about the “Increase in NNK-induced NBUD frequency, lung cancer patients over controls” value [3] of the same compound?
The value was 8.9 fold.

What about the “Increase in NNK-induced NPB frequency, lung cancer patients over controls” value [3] of the same compound?
The value was 3.4 fold.

And the “Control Subjects, % with 0 NNK-induced NBUDs” value [4]?
Its value is 87% and 86.9%.

And the “Control Subjects, % with 0 or 2 NNK-induced NPBs” value [4]?
The value was 65% and 64.6%.

What about the “Control Subjects, % with 1 NNK-induced NBUDs” value [4] of the same compound?
Its value is 11.5%.

And the “Control Subjects, % with 3 or 5 NNK-induced NPBs” value [4]?
The value was 35.4%.

What about the “Control Subjects, No. with 0 NNK-induced NBUDs” value [4] of the same compound?
The value was 113.

And the “Control Subjects, No. with 0 or 2 NNK-induced NPBs” value [4]?
Its value is 84.

And the “Control Subjects, No. with 1 NNK-induced NBUDs” value [4]?
Its value is 15.

What about the “Control Subjects, No. with 3 or 5 NNK-induced NPBs” value [4] of the same compound?
Its value is 46.

And the “Control Subjects, No. with ≧2 NNK-induced NBUDs” value [4]?
The value was 2.

And the “Control Subjects, No. with ≧6 NNK-induced NPBs” value [4]?
The value was 0.

And the “Case Patients, % with 0 NNK-induced NBUDs” value [5]?
The value was 35% and 34.5%.

What about the “Case Patients, % with 1 NNK-induced NBUDs” value [5] of the same compound?
The value was 42.5%.

And the “Case Patients, % with 3 or 5 NNK-induced NPBs” value [5]?
The value was 10.8%.

What about the “Case Patients, No. with 0 NNK-induced NBUDs” value [5] of the same compound?
The value was 48.

And the “Case Patients, No. with 0 or 2 NNK-induced NPBs” value [5]?
The value was 0.

What about the “Case Patients, No. with 1 NNK-induced NBUDs” value [5] of the same compound?
The value was 59.

What about the “Case Patients, No. with 3 or 5 NNK-induced NPBs” value [5] of the same compound?
The value was 15.

What about the “Case Patients, No. with ≧2 NNK-induced NBUDs” value [5] of the same compound?
Its value is 32.

What about the “Case Patients, No. with ≧6 NNK-induced NPBs” value [5] of the same compound?
The value was 124.
